Measured values taken from US6632828B2, “Substituted imidazole neuropeptide Y Y5 receptor antagonists” (Schering Corporation, priority 1999, dated 2003).

The molecules below were run against T1, Human NPY Y5 receptors (Homo sapiens, UniProt Q15761) (assay: NPY Receptor Binding Assay). Details: Human NPY Y5 receptors expressed in CHO cells; 0.1 nM 125I-peptide YY; read-out: r/h Y5 Ki.
T1 construct: expressed in transfected cells; host or cells: CHO cells (membrane protein)
T1 sequence (Q15761 1-445): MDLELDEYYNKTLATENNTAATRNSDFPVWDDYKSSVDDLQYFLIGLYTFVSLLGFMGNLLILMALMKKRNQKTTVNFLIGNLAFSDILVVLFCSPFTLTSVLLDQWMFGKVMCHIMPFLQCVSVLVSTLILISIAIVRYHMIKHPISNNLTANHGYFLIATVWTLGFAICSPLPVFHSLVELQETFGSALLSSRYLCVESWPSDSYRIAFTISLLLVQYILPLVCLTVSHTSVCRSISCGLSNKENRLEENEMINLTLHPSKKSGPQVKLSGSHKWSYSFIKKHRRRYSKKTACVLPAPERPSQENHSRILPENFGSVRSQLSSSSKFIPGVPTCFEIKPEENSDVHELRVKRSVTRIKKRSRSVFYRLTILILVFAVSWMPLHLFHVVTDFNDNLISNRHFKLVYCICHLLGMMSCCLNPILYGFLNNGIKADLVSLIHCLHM
Method: NPY Receptor Binding Assay
Human NPY Y5 receptors were expressed in CHO cells. Binding assays were performed in 50 mM HEPES, pH 7.2, 2.5 mM CaCl2, 1 mM MgCl2 and 0.1% BSA containing 5-10 μg of membrane protein and 0.1 nM ^125I-peptide YY in a total volume of 200 μl. Non-specific binding was determined in the presence of 1 uM NPY. The reaction mixtures were incubated for 90 minutes at room temperature, then filtered through Millipore MAFC glass fiber filter plates which had been pre-soaked in 0.5% polyethyleneimine. The filters were washed with phosphate-buffered saline, and radioactivity was measured in a Packard TopCount scintillation counter.

Row | SMILES | Ki
1 | O=C(Nc1ccccc1)c1cccc(-c2nc(-c3cccc(C(F)(F)F)c3)c[nH]2)c1 [Example 2A] | 315 nM
2 | FC(F)(F)c1cccc(-c2c[nH]c(-c3cccc(CN4CCCCC4)c3)n2)c1 [Example 3] | 17 nM
3 | COC(=O)c1cccc(-c2nc(-c3cccc(C(F)(F)F)c3)c[nH]2)c1 [Example 1B] | 52 nM
4 | FC(F)(F)c1cccc(-c2c[nH]c(C34CC5CC(CC(C5)C3)C4)n2)c1 [Example 1A] | 3 nM
5 | O=C(Nc1cccc(-c2nc(-c3cccc(C(F)(F)F)c3)c[nH]2)c1)c1ccccc1 [Example 10A] | 63 nM
6 | CN(c1cccc(-c2nc(-c3cccc(C(F)(F)F)c3)c[nH]2)c1)S(C)(=O)=O [Example 6A] | 2.1 nM

These reach a lower Ki. Values come first.

Row | Ki | SMILES
7 | 2 nM | CS(=O)(=O)N1CCC(c2nc(-c3cc(Cl)cc(Cl)c3)c[nH]2)CC1 [Example 21C]
8 | 1.4 nM | CS(=O)(=O)Nc1cccc(-c2nc(-c3cccc(C(F)(F)F)c3)c[nH]2)c1 [Example 5A]
9 | 1.4 nM | FC(F)(F)c1cccc(-c2c[nH]c(N3CCN(c4ccccn4)CC3)n2)c1 [Example 26]
10 | 1.7 nM | FC(F)(F)c1cccc(-c2c[nH]c(C3=CCN(c4ccccn4)CC3)n2)c1 [Example 19]
